Assay results as given in the NIST ThermoML archive (doi:10.1016/j.fluid.2004.09.013).

Conditions: for mass density: Fluid (supercritical or subcritical phases), Vibrating tube method; for vapor or sublimation pressure: Liquid

C/C=C\C [(Z)-2-butene]
Conditions | mass density [kg/m3]
393.23 K, 9997 kPa | 513.82
393.23 K, 15000 kPa | 529.93
393.23 K, 20002 kPa | 542.79
393.23 K, 24993 kPa | 553.61
393.23 K, 29998 kPa | 563
393.23 K, 35001 kPa | 571.39
393.23 K, 39987 kPa | 578.89
398.23 K, 2818 kPa | 466.01
398.23 K, 4984 kPa | 481.85
398.23 K, 20014 kPa | 537.23
398.23 K, 25003 kPa | 548.52
398.23 K, 34998 kPa | 566.9
398.23 K, 39994 kPa | 574.66
398.24 K, 9988 kPa | 506.47
398.24 K, 14995 kPa | 523.68
398.24 K, 29983 kPa | 558.24
403.23 K, 3025 kPa | 454.7
403.23 K, 14991 kPa | 517.31
403.23 K, 25002 kPa | 543.35
403.23 K, 29989 kPa | 553.46
403.23 K, 34986 kPa | 562.37
403.23 K, 39984 kPa | 570.38
403.24 K, 4991 kPa | 471.74
403.24 K, 9985 kPa | 498.93
403.24 K, 20009 kPa | 531.6
408.23 K, 14993 kPa | 510.87
408.23 K, 29988 kPa | 548.67
408.23 K, 39992 kPa | 566.14
408.24 K, 3245 kPa | 443.06
408.24 K, 5000 kPa | 461.02
408.24 K, 10003 kPa | 491.26
408.24 K, 20000 kPa | 525.89
408.24 K, 25002 kPa | 538.19
408.24 K, 35001 kPa | 557.91
413.23 K, 34991 kPa | 553.36
413.23 K, 39999 kPa | 561.87
413.24 K, 3479 kPa | 430.52
413.24 K, 4987 kPa | 448.83
413.24 K, 9995 kPa | 483.23
413.24 K, 14993 kPa | 504.29
413.24 K, 20000 kPa | 520.13
413.24 K, 25001 kPa | 532.97
413.24 K, 29987 kPa | 543.83
418.23 K, 9989 kPa | 474.95
418.23 K, 29990 kPa | 538.98
418.24 K, 3727 kPa | 416.94
418.24 K, 4983 kPa | 435.78
418.24 K, 14999 kPa | 497.65
418.24 K, 19989 kPa | 514.28
418.24 K, 24991 kPa | 527.69
418.24 K, 35007 kPa | 548.86
418.24 K, 40000 kPa | 557.55
423.24 K, 3987 kPa | 401.93
423.24 K, 4998 kPa | 421.22
423.24 K, 9996 kPa | 466.36
423.24 K, 14993 kPa | 490.76
423.24 K, 19998 kPa | 508.37
423.24 K, 24983 kPa | 522.32
423.24 K, 30000 kPa | 534.08
423.24 K, 34984 kPa | 544.2
423.24 K, 39995 kPa | 553.2
428.24 K, 4261 kPa | 385.43
428.24 K, 4996 kPa | 404.14
428.24 K, 10003 kPa | 457.53
428.24 K, 14984 kPa | 483.8
428.24 K, 20011 kPa | 502.46
428.24 K, 24985 kPa | 517
428.24 K, 29987 kPa | 529.17
428.24 K, 34985 kPa | 539.65
428.24 K, 40008 kPa | 548.93
433.24 K, 4552 kPa | 367.25
433.24 K, 5002 kPa | 383.51
433.24 K, 9988 kPa | 448.25
433.24 K, 15006 kPa | 476.83
433.24 K, 20002 kPa | 496.43
433.24 K, 24994 kPa | 511.67
433.24 K, 29984 kPa | 524.27
433.24 K, 35007 kPa | 535.14
433.24 K, 39990 kPa | 544.63
438.24 K, 5016 kPa | 356.57
438.24 K, 9984 kPa | 438.25
438.24 K, 15001 kPa | 469.64
438.24 K, 20003 kPa | 490.38
438.24 K, 24991 kPa | 506.29
438.24 K, 29997 kPa | 519.4
438.24 K, 35007 kPa | 530.6
438.24 K, 39994 kPa | 540.34
443.23 K, 5019 kPa | 312.48
443.24 K, 10006 kPa | 428.67
443.24 K, 14981 kPa | 462.28
443.24 K, 20008 kPa | 484.35
443.24 K, 24985 kPa | 500.93
443.24 K, 29991 kPa | 514.54
443.24 K, 34987 kPa | 526.05
443.24 K, 39991 kPa | 536.15
448.23 K, 5020 kPa | 224.32
448.24 K, 9992 kPa | 418.15
448.24 K, 15006 kPa | 454.98
448.24 K, 20001 kPa | 478.13
448.24 K, 24996 kPa | 495.5
448.24 K, 30011 kPa | 509.66
448.24 K, 34990 kPa | 521.51
448.24 K, 39989 kPa | 531.87
453.24 K, 5018 kPa | 172.57
453.24 K, 9981 kPa | 407.03
453.24 K, 14999 kPa | 447.35
453.24 K, 20011 kPa | 471.95
453.24 K, 24994 kPa | 490.05

Conditions | vapor or sublimation pressure [kPa]
396.4 K | 2209.3
400.36 K | 2343.2
407.79 K | 2693.7
414.25 K | 3004.6
416.29 K | 3089.5
422.73 K | 3456.3
425.59 K | 3598.4
430.42 K | 3884.7
433.88 K | 4101.1
